Patent publication US20250281479A1, “TREATMENT OF CAVERNOUS ANGIOMAS WITH A 4-SUBSTITUTED PIPERIDINE DERIVATIVE” (Neurelis, Inc., priority 2024, published 2025)
Where two headings read alike, the source gives them in different places.

How the values were obtained:
MATE2-K = MATE2-K (Homo sapiens, UniProt Q86VL8); assay type: in vitro ADME
Description: (§1) Exposure to NRL-2017 was similar or greater (up to 5-fold) than that to NRL-1049 in rats when dosed once a day (QD). In monkeys, exposure to NRL-2017 was also greater (up to 33-fold) than that to NRL-1049. When rats were dosed twice a day (BID) for 14 days, there was a decrease in formation of NRL-2017 with exposure to NRL-2017 lower than that of NRL-1049 (ratio as low as 0.06). […] NRL-1049 bound to human serum albumin and human alpha1-acid glycoprotein. […] There was also inhibition of P-glycoprotein (P-gp) (only CACO-2 cells), organic anion transporting polypeptides (OATP) OATP1B1, OATP1B3 and OAT3 (IC50, >100 μM), but no effect on P-gp (MDCK2 cells), breast cancer resistance protein (BCRP), bile salt export pump (BSEP), or MATE2-K. NRL-1049 is a substrate for P-gp, not BCRP. […] This conclusion will be revisited when human pharmacokinetic (PK) data becomes available.

CYP2C8 = CYP2C8 (Homo sapiens, UniProt P10632); test: CYP inhibition; assay type: in vitro ADME; conditions: read-out: half-maximal inhibitory concentration (IC50)
Description: as §1

[1] = first-in-human single ascending dose and food-effect study, plasma pharmacokinetics; assay type: in vivo; conditions: for Vd/F: read-out: Vz/F
Text: This was a first-in-human, single center, randomized, double-blind, placebo-controlled, single ascending dose (SAD) study, including a food-effect assessment, in healthy male and female subjects. Up to 44 subjects were included in the study.
The study consisted of 4 sequential cohorts of 8 subjects each (6 active and 2 placebo), randomly assigned to receive a single oral dose of NRL-1049 or matching-placebo under fasting state on Day 1 (See Table 2). In each cohort, a sentinel group of 2 subjects (1 active and 1 placebo) were dosed at least 24 hours prior to enrolling the remaining subjects of the cohort, contingent on the safety profile observed during sentinel dosing, as defined by medical judgment.
Subjects were admitted to the clinical research unit (CRU) on Day −1. On Day 1, following an overnight fast, subjects received a single oral dose of their assigned study treatment. Safety, PK, and exploratory biomarker assessments were performed prior to dosing and at assigned time points during study confinement. Subjects were permitted to leave the CRU following the completion of the 48-hour PK postdose sampling and safety assessments. A safety follow-up phone call was performed on Day 8 (±1 day).
Furthermore, a food-effect assessment was integrated into Cohort 3, in which a single oral 150 mg dose of NRL-1049 or placebo was administered to 12 subjects (10 active and 2 placebo) under fed state in Period 2 (refer to schedule of food-effect Cohort 3 in Table 3). After completion of Period 1 and a washout period of at least 14 days, Cohort 3 subjects repeated the screening procedures to ensure they still met the inclusion and exclusion criteria prior to readmission to the CRU for Period 2. Subjects dosed in Period 1 and who returned for Period 2 (a maximum of 6 active and 2 placebo) were administered the same single oral dose in Period 2 under fed state. In addition, at least 4 new subjects were enrolled in Period 2 only, in order to dose a total of 12 subjects (10 active and 2 placebo), in a 1:1 ratio of male to female. If a subject dosed in Period 1 was unable to return for Period 2, a new subject was enrolled to ensure dosing a total of 12 subjects in Period 2. Newly enrolled subjects only received the study drug in the fed state, and as such were not required to undergo Period 1 activities. There was no sentinel approach in Period 2.
Study drugs (NRL-1049 or placebo) were administered in the morning. The date and time of each dose was recorded. For each subject, all scheduled postdose activities and assessments were performed relative to the time of study drug administration. An oral dose of the assigned formulation was administered to subjects with approximately 240 mL of water at ambient temperature. The capsule(s) were swallowed whole and not chewed or broken. Food and fluid intake other than water were controlled for each confinement period and all subjects. In Cohorts 1, 2, 3 (Period 1), and 4, water was permitted as needed except from 1 hour predose until 1 hour after dosing. In Period 2 of Cohort 3, water was permitted as needed throughout the confinement period. For cohorts under fasting state, subjects were required to fast (abstain from food) for at least 10 hours prior to dosing and for at least 4 hours following dosing. In Period 2 of the food-effect cohort only, following an overnight fast of at least 10 hours, subjects received a standardized high-fat, high-calorie meal 30 minutes prior to study drug administration. An example meal would consist of 2 eggs fried in butter, 2 strips of bacon, 2 slices of toast with butter, 4 ounces of hash brown potatoes, and 8 ounces of whole milk. […] Subjects had to eat the total content of this meal in 30 minutes or less. For all cohorts, a standardized lunch was served at least 4 hours after dosing. A supper, light snack, and other meals were served at appropriate times thereafter, but not until after 9 hours postdose. […]

[2] = 150 mg NRL-1049, fed compared to fasting state
[3] = 25 to 250 mg NRL-1049, fasting conditions
[4] = plasma NRL-1049, mean, 25 mg NRL-1049 single oral, fasting, Cohort 1, N = 6
[5] = plasma NRL-1049, mean, 75 mg NRL-1049 single oral, fasting, Cohort 2, N = 6
[6] = plasma NRL-1049, mean, 150 mg NRL-1049 single oral, Fed, Cohort 3, N = 10
[7] = plasma NRL-1049, mean, 250 mg NRL-1049 single oral, fasting, Cohort 4, N = 6

Chain of MATE2-K (Q86VL8 1-566 isoform Q86VL8-3): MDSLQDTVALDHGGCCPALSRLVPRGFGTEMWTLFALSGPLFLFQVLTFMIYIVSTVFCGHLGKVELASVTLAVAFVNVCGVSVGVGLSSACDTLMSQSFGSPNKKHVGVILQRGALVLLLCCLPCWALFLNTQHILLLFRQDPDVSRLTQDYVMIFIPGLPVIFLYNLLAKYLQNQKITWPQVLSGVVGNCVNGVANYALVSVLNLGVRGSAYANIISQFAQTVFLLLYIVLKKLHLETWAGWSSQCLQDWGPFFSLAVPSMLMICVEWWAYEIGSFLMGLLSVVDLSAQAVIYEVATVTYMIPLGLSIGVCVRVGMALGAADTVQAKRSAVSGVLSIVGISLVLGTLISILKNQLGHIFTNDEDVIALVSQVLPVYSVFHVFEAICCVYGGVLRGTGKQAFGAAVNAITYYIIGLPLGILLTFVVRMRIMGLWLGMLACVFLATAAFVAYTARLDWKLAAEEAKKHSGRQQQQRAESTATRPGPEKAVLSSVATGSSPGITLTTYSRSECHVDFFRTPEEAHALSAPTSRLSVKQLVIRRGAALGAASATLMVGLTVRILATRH
Chain of CYP2C8 (P10632 whole entry): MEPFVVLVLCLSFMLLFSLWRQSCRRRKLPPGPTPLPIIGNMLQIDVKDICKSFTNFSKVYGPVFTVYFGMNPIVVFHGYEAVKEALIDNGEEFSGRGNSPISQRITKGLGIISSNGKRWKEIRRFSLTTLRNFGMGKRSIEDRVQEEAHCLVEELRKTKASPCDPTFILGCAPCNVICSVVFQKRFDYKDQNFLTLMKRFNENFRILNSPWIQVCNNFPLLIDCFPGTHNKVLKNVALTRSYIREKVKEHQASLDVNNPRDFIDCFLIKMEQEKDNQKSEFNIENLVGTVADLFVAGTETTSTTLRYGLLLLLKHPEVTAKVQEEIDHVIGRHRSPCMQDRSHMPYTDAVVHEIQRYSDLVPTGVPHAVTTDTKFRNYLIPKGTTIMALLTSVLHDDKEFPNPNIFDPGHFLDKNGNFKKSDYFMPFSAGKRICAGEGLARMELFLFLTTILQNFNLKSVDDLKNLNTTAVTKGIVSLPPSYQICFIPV

SMILES: C[C@@H](N)C1CCN(S(=O)(=O)c2cccc3cnccc23)CC1 [NRL-1049]
- effect on transporter (MATE2-K): no effect
- IC50 (CYP2C8): 160 µM
- food effect on mean AUC0-T and AUCinf [1, 2]: greater in the fed state
- food effect on mean Cmax [1, 2]: decreased
- food effect on mean apparent clearance [1, 2]: greater in the fasting state
- food effect on mean apparent volume of distribution [1, 2]: greater in the fed state
- food effect on mean elimination half-life [1, 2]: slightly increased
- time up to which mean concentrations were quantifiable ([1]; 25-mg dose, fasting state): up to 2 hours
- manner of increase of AUC0-T with dose [1, 3]: greater than dose proportional
- manner of increase of AUC0-Tmax with dose [1, 3]: dose proportional
- manner of increase of AUCinf with dose [1, 3]: greater than dose proportional
- manner of increase of Cmax with dose [1, 3]: dose proportional
- time up to which mean concentrations were quantifiable ([1]; 75-mg dose, fasting state): ≤ 4 h
- time up to which mean concentrations were quantifiable ([1]; 150- and 250-mg doses, fasting state): ≤ 8 h
- time up to which mean concentrations were quantifiable ([1]; 150-mg dose, fed state): up to 12 hours
- AUC(0-t) ([1]; both sexes, human, plasma, oral, range over dose range 25 to 250 mg NRL-1049, fasting state, read-out: mean AUC0-T): 3.03 to 76.5 ng·h/mL
- AUC ([1]; both sexes, human, plasma, oral, range over dose range 25 to 250 mg NRL-1049, fasting state, read-out: mean AUC0-Tmax): 1.26 to 8.73 ng·h/mL
- AUC(0-inf) ([1]; both sexes, human, plasma, oral, range over dose range 25 to 250 mg NRL-1049, fasting state, read-out: mean AUCinf): 3.81 to 78.2 ng·h/mL
- Cmax ([1]; both sexes, human, plasma, oral, range over dose range 25 to 250 mg NRL-1049, fasting state, read-out: mean Cmax): 3.66 to 58 ng/mL
- half-life ([1]; both sexes, human, plasma, oral, range over the dose groups 25 to 250 mg NRL-1049, fasting state, read-out: mean elimination half-life): 31.2 to 75.6 min
- AUC(0-t) ([1]; both sexes, human, plasma, po, 25 mg, plasma NRL-1049, mean, 25 mg NRL-1049 single oral, fasting, Cohort 1, N = 6, read-out: AUC0-T): 3.03 ng·h/mL
- AUC ([1]; both sexes, human, plasma, po, 25 mg, plasma NRL-1049, mean, 25 mg NRL-1049 single oral, fasting, Cohort 1, N = 6, read-out: AUC0-Tmax): 1.26 ng·h/mL
- AUC(0-inf) ([1]; both sexes, human, plasma, po, 25 mg, plasma NRL-1049, mean, 25 mg NRL-1049 single oral, fasting, Cohort 1, N = 6, read-out: AUCinf): 3.81 ng·h/mL
- Cmax ([1]; both sexes, human, plasma, po, 25 mg, plasma NRL-1049, mean, 25 mg NRL-1049 single oral, fasting, Cohort 1, N = 6, read-out: Cmax): 3.66 ng/mL
- Vd/F ([1]; both sexes, human, plasma, po, 25 mg, plasma NRL-1049, mean, 25 mg NRL-1049 single oral, fasting, Cohort 1, N = 6): 5500 L
- Tmax ([1]; both sexes, human, plasma, po, 25 mg, plasma NRL-1049, median, 25 mg NRL-1049 single oral, fasting, Cohort 1, N = 6, read-out: Tmax): 45 min
- AUC(0-t) ([1]; both sexes, human, plasma, po, 75 mg, plasma NRL-1049, mean, 75 mg NRL-1049 single oral, fasting, Cohort 2, N = 6, read-out: AUC0-T): 13.8 ng·h/mL
- AUC ([1]; both sexes, human, plasma, po, 75 mg, plasma NRL-1049, mean, 75 mg NRL-1049 single oral, fasting, Cohort 2, N = 6, read-out: AUC0-Tmax): 2.88 ng·h/mL
- AUC(0-inf) ([1]; both sexes, human, plasma, po, 75 mg, plasma NRL-1049, mean, 75 mg NRL-1049 single oral, fasting, Cohort 2, N = 6, read-out: AUCinf): 15.2 ng·h/mL
- Cmax ([1]; both sexes, human, plasma, po, 75 mg, plasma NRL-1049, mean, 75 mg NRL-1049 single oral, fasting, Cohort 2, N = 6, read-out: Cmax): 16.9 ng/mL
- Vd/F ([1]; both sexes, human, plasma, po, 75 mg, plasma NRL-1049, mean, 75 mg NRL-1049 single oral, fasting, Cohort 2, N = 6): 6020 L
- Tmax ([1]; both sexes, human, plasma, po, 75 mg, plasma NRL-1049, median, 75 mg NRL-1049 single oral, fasting, Cohort 2, N = 6, read-out: Tmax): 30 min
- AUC(0-t) ([1]; both sexes, human, plasma, po, 150 mg, plasma NRL-1049, mean, 150 mg NRL-1049 single oral, Fasted, Cohort 3, N = 6, read-out: AUC0-T): 34.8 ng·h/mL
- AUC ([1]; both sexes, human, plasma, po, 150 mg, plasma NRL-1049, mean, 150 mg NRL-1049 single oral, Fasted, Cohort 3, N = 6, read-out: AUC0-Tmax): 6.16 ng·h/mL
- AUC(0-inf) ([1]; both sexes, human, plasma, po, 150 mg, plasma NRL-1049, mean, 150 mg NRL-1049 single oral, Fasted, Cohort 3, N = 6, read-out: AUCinf): 36.2 ng·h/mL
- Cmax ([1]; both sexes, human, plasma, po, 150 mg, plasma NRL-1049, mean, 150 mg NRL-1049 single oral, Fasted, Cohort 3, N = 6, read-out: Cmax): 34.9 ng/mL
- Vd/F ([1]; both sexes, human, plasma, po, 150 mg, plasma NRL-1049, mean, 150 mg NRL-1049 single oral, Fasted, Cohort 3, N = 6): 10800 L
- AUC(0-t) ([1]; both sexes, human, plasma, po, 150 mg, plasma NRL-1049, mean, 150 mg NRL-1049 single oral, Fed, Cohort 3, N = 10, read-out: AUC0-T): 42 ng·h/mL
- AUC ([1]; both sexes, human, plasma, po, 150 mg, plasma NRL-1049, mean, 150 mg NRL-1049 single oral, Fed, Cohort 3, N = 10, read-out: AUC0-Tmax): 6.14 ng·h/mL
- AUC(0-inf) ([1]; both sexes, human, plasma, po, 150 mg, plasma NRL-1049, mean, 150 mg NRL-1049 single oral, Fed, Cohort 3, N = 10, read-out: AUCinf): 44.7 ng·h/mL
- Cmax ([1]; both sexes, human, plasma, po, 150 mg, plasma NRL-1049, mean, 150 mg NRL-1049 single oral, Fed, Cohort 3, N = 10, read-out: Cmax): 18.5 ng/mL
- Vd/F ([1]; both sexes, human, plasma, po, 150 mg, plasma NRL-1049, mean, 150 mg NRL-1049 single oral, Fed, Cohort 3, N = 10): 10800 L
- Tmax ([1]; both sexes, human, plasma, po, 150 mg, plasma NRL-1049, median, 150 mg NRL-1049 single oral, Fasted, Cohort 3, N = 6, read-out: Tmax): 30 min
- Tmax ([1]; both sexes, human, plasma, po, 150 mg, plasma NRL-1049, median, 150 mg NRL-1049 single oral, Fed, Cohort 3, N = 10, read-out: Tmax): 52.8 min
- AUC(0-t) ([1]; both sexes, human, plasma, po, 250 mg, plasma NRL-1049, mean, 250 mg NRL-1049 single oral, fasting, Cohort 4, N = 6, read-out: AUC0-T): 76.5 ng·h/mL
- AUC ([1]; both sexes, human, plasma, po, 250 mg, plasma NRL-1049, mean, 250 mg NRL-1049 single oral, fasting, Cohort 4, N = 6, read-out: AUC0-Tmax): 8.73 ng·h/mL
- AUC(0-inf) ([1]; both sexes, human, plasma, po, 250 mg, plasma NRL-1049, mean, 250 mg NRL-1049 single oral, fasting, Cohort 4, N = 6, read-out: AUCinf): 78.2 ng·h/mL
- Cmax ([1]; both sexes, human, plasma, po, 250 mg, plasma NRL-1049, mean, 250 mg NRL-1049 single oral, fasting, Cohort 4, N = 6, read-out: Cmax): 58 ng/mL
- Vd/F ([1]; both sexes, human, plasma, po, 250 mg, plasma NRL-1049, mean, 250 mg NRL-1049 single oral, fasting, Cohort 4, N = 6): 4940 L
- Tmax ([1]; both sexes, human, plasma, po, 250 mg, plasma NRL-1049, median, 250 mg NRL-1049 single oral, fasting, Cohort 4, N = 6, read-out: Tmax): 30 min
- Tmax ([1]; both sexes, human, plasma, po, range over single oral doses of 25 to 250 mg NRL-1049, fasting state, read-out: median time to maximum observed plasma concentration (Tmax)): 30 to 45 min
- CL/F [1, 4]: 7420 L/h
- Thalf [1, 4]: 0.52 h
- CL/F [1, 5]: 5350 L/h
- Thalf [1, 5]: 0.81 h
- CL/F ([1]; plasma NRL-1049, mean, 150 mg NRL-1049 single oral, Fasted, Cohort 3, N = 6): 4820 L/h
- CL/F [1, 6]: 3700 L/h
- Thalf [1, 6]: 2.05 h
- CL/F [1, 7]: 3370 L/h
- Thalf [1, 7]: 1.03 h
